{
  "source": "patent US7097996B2",
  "about": "“Methods of screening test compounds using GADD34L, an eIF2α-specific phosphatase subunit” (New York University, priority 2002, dated 2006)",
  "key": {"HT22 cells": {"system": "HT22 cells", "experiment": "HT22 cell survival (MTT) after toxic glutamate exposure", "type": "cell-based", "details": "HT22 cells preconditioned (70 μM 22P19 for 24 or 48 h, or siRNA transfection), then 5 mM or 10 mM glutamate for 18 hours", "experimental": "FIG. 6: Inhibition of endogenous GADD34L protects cells against oxidative toxicity. The bar graphs show percent survival of HT22 cells following exposure to toxic amounts of glutamate. HT22 cells were treated with 70 μM 22P19 for 24 or 48 h (top panel), or left untransfected (NTx), mock transfected, transfected with GADD34L siRNA, or transfected with control or CD2 siRNA (bottom panel), and then exposed to the indicated concentrations of glutamate for 18 hours.\nIn order to determine whether this preconditioning is protective against subsequent cell stress, cell survival rates of HT22 cells following toxic glutamate exposure were measured, where those HT22 cells had been preconditioned by 22P19- or RNAi-mediated inhibition of GADD34L (see FIG. 6).\nFor this assay, HT22 cells were either treated with 70 μM 22P19 for 24 or 48 h, or transfected with GADD34L siRNA or control CD2 siRNA, and then exposed to 0 mM, 5 mM, or 10 mM glutamate for 18 hours."}, "CHOP::GFP reporter": {"system": "CHOP::GFP reporter", "experiment": "CHOP::GFP reporter expression by FACS in CHOP::GFP CHO cells", "type": "cell-based, Chinese Hamster"}, "[1]": {"system": "CHOP protein and phosphorylated eIF2α in CHO cells", "type": "cell-based, Chinese Hamster"}, "[2]": {"details": "parental CHO cells, 1.75 μg/mL tunicamycin or 50 μM arsenite"}},
  "note": "Where two headings read alike, the source gives them in different places. d = 2'-deoxy (DNA); r = 2'-OH (RNA)",
  "data": [
    {"substance": "GADD34L siRNA: complementary double stranded RNA oligonucleotides (SEQ ID NO: 9 and 10) targeting GADD34L mRNA, purchased from Dharmacon (chain 1 GGGAUGGAUGCAGGUUCCATT; chain 2 UGGAACCUGCAUCCAUCCCTT; sugars from the 5' end r19 d2, backbone not given here)", "values": [
      {"measurement": "cell survival following glutamate treatment", "setting": "HT22 cells", "value": "substantially improved cell survival"},
      {"measurement": "CHOP::GFP expression in cells not subject to stress", "setting": "CHOP::GFP reporter; CHO CHOP::GFP cells harvested 16, 24 or 44 hours after transfection", "value": "activates CHOP::GFP expression"}
    ]},
    {"substance": "arsenite", "values": [
      {"measurement": "CHOP protein level", "setting": "[1]", "value": "strong induction of CHOP protein"},
      {"measurement": "phosphorylated eIF2α level", "setting": "[1]", "value": "increase in phosphorylated eIF2α levels"},
      {"measurement": "CHOP::GFP reporter expression", "setting": "CHOP::GFP reporter", "value": "substantially activated"}
    ]},
    {"substance": "tunicamycin", "values": [
      {"measurement": "CHOP protein level", "setting": "[1]; [2]", "value": "strong induction of CHOP protein"},
      {"measurement": "phosphorylated eIF2α level", "setting": "[1]; [2]", "value": "increase in phosphorylated eIF2α levels"},
      {"measurement": "CHOP::GFP reporter expression", "setting": "CHOP::GFP reporter; parental CHO cells, 8 hours, 1.75 μg/mL tunicamycin or 50 μM arsenite", "value": "substantially activated"}
    ]}
  ]
}
